In patent US20080081781A1, “Methods and compositions for the treatment of metabolic syndrome” (priority 2004, published 2008):
Read-outs that look alike come from different tables or passages of the source.

System: patients with type 2 diabetes
Assay type: in vivo, human
Description: Ninety-seven hyperglycemic patients (54 males and 43 females) with fasting blood glucose>7 mmol/L and post-prandial blood glucose>11.1 mmol/L were enrolled in a study at the Nanjing First Hospital in Nanjing, China. The patients were asked to end any current treatments for hyperglycemia at least 2 weeks prior to commencement of the study.
Fifty of the patients (male/female, 27/23; age 57±8y) were randomly assigned to be given 0.5 gram twice a day (1g/day total) of berberine (Nanjing Second Pharmaceutics, Inc., Nanjing, China), orally for 2 months. Out of these 50 patients, 25 had hyperlipidemia, 9 had hypertension and 2 had cardiovascular disease. Twenty-six patients (male/female, 15/11; age 56±11 y) were given 1.5 grams of metformin (Double-Crane Pharmaceutical, Inc., Beijing, China) per day, orally for two months. Of these twenty-six patients, 11 had hyperlipidemia, and four had hypertension. The remaining twenty-one patients (male/female, 11/10, age 49±10 y) were given 4 mg per day of rosiglitazone (Glaxowelcome, UK), orally for two months. Of these 21 patients, ten had hyperlipidemia and four had hypertension. Metformin and rosiglitazone served as reference controls as they are standard treatments for type 2 diabetes.
Blood samples were taken prior to the commencement of therapy and after completion of the therapy.

[1] = patients with type 2 diabetes, After treatment (2 months), oral: berberine 1 g/day, metformin 1.5 g/day, rosiglitazone 4 mg/day, Mean ± SE
[2] = patients with type 2 diabetes, Before treatment (baseline), Mean ± SE
[3] = type 2 diabetes patients, 1 g/day orally, 2 months

COc1ccc2cc3[n+](cc2c1OC)CCc1cc2c(cc1-3)OCO2 [berberine]
serum insulin levels (after treatment, normal range 2.5-13 mlU/L): decreased into the normal range | ALT after treatment (human, in vivo): 23±16 | BUN after treatment (human, in vivo): 5.7±1.2 | Cr after treatment (human, in vivo): 71±14 | r-GT after treatment (human, in vivo): 31±23 | HbA1c [1]: 6.8 ± 0.2 % | Triglyceride [1]: 1.4 ± 0.1 mmol/L | FBG (fasting blood glucose) [2]: 10.4 ± 0.4 mmol/L | HbA1c [2]: 8.0 ± 0.3% | Triglyceride [2]: 1.7 ± 0.1 mmol/L | reduction of serum cholesterol (type 2 diabetes patients of berberine group (50% also had hyperlipidemia)): 24% | lowering of fasting blood glucose [3]: 26% | lowering of hemoglobin A1c (HbA1c) [3]: 18% | lowering of triglycerides [3]: 18%
